Here are results for 1 compound from patent US11311576B2, “Methods of use for CAR T cells” (Seattle Children's Hospital, priority 2018, dated 2022).

One may read the Kd as the concentration at which binding is half-saturated.

For one data set, the system named is MDA-MB-231 tumor. In words: Kinetics of CAR-T cell expansion and tumor uptake in MDA-MB-231 tumor bearing mice. In kind it is in vivo, NSG mice. How it is done:
When the tumor sizes averaged at ˜350±60 mm^3 on day 2, up to […] of EC17 at 500 nmol/kg were given on days 2, 9, 16, 23, and 30. For ex-vivo analysis, 3 animals were taken before the next EC17 dose on days 9, 16, 23, and 30 for a total of 4 collections. For comparison, the same EC17 dose was given to 3 CAR-T mice that had ˜4.4× larger tumor sizes on day 2 (˜1555±79 mm3). For each collection, fresh blood and tumor samples (if available) were analyzed for the presence of human CD3e+ EGFRt+ CAR-T cells by flow cytometry.
For CAR-T cell analysis in the circulation, plasma was removed from a predetermined volume of whole blood collected into tubes containing ethylenediaminetetraacetic acid anticoagulant. […] A minimum of 20,000 propidium iodide negative live cell events were collected on the Gallios flow cytometer and analyzed with the Kaluza software, version 2.1 (Beckman Coulter, Brea, Calif.). CAR-positive T cells were identified in mouse blood as human CD3e+ EGFRt+ events and absolute numbers per volume of blood were calculated using equal numbers of CountBright™ beads (Invitrogen, Carlsbad, Calif.) added to each sample. The number of tumor-infiltrating CD3ε+ EGFRt+ CAR-T cells was expressed as % total viable tumor cells analyzed.

In another data set the test system is THP1-FRβ. Description: EC17 dose response, specific lysis in co-culture with E2-CAR-T cells (LDH assay). Particulars: 24 hours co-culture. In kind it is cell-based, human. The method, then:
(§1) After 24 hours of co-culture, supernatants were harvested to determine tumor cell killing. To study the kinetics of T cell activation and FR correlation in vitro (FIG. 60A, FIG. 60B, FIG. 60C, FIG. 60D, FIG. 60E), co-cultures were carried out in FR+/− cell lines at varying E/T ratios (1:27, 1:9, 1:3, 1:1, 3:1) in the continuous presence of 10 nM EC17. The kinetics of tumor cell killing were quantified after 16 and 48 hours of co-culture. Meanwhile, a portion of the supernatants was taken after 44 hours of co-culture for measurement of IFNg, IL-2 and TNFα. Using Promega's CytoTox 96® LDH assay kit, target cell killing was quantified and expressed as specific lysis (%) which was normalized to basal levels in the absence of EC17 at defined E/T ratios. The LEGENDplex™ human Th1 cytokine panel (BioLegend, San Diego, Calif.) was used to determine CAR-T cell derived cytokines.
(§2) To study the robustness of CAR-T cell activation, 5 FR+ cell lines (KB, MDA-MB-231, HOS-FRα, THP1-FRβ, OV90) were used along with a wide range of EC17 concentration (0.1 pM to 100 μM) at an E/T ratio of 1:1 (FIG. 59A, FIG. 59B). Specific lysis (%) was quantified by Promega's LDH cytotoxicity assay kit after 24 hours of co25 culture. In all cell lines, EC17-dependent cytolysis followed a bell-shaped dose response with a somewhat broad concentration plateau (˜0.1 nM to […]) (FIG. 59A). […] However, maximal lysis obtained for each cell line ranked differently at 45% (MDA-MB-231), 27% (THP1-FRb), 18% (HOS-FRα), 15% (OV90) and 11% (KB) (FIG. 59B).

For a further data set, the system named is KB. The description is as above. Format: cell-based, human. Particulars: 24 hours co-culture. How it is done:
as §1, §2

The next data set concerns OV90. Described as above. Particulars: 24 hours co-culture. In kind it is cell-based, human. How it is done:
as §1, §2

The test system of the next data set is HOS-FRα. Described as above. Format: cell-based, human. Particulars: 24 hours co-culture. The method, then: as §1, §2
The test system of another data set is MDA-MB-231. Described as above. In kind it is cell-based, human. The settings on record: 24 hours co-culture. The method, then:
as §1, §2

The next data set deals with E2-CAR-T cells. In words: 3H-EC17 uptake by E2-CAR-T cells. In kind it is binding, human. The settings on record: read-out: Kd of 3H-EC17 (estimated); unsorted E2-CAR-T cells (~24% EGFRt+, ~95:5 CD8/CD4), 2 hour at room temperature. The source says:
(calculated from the numbers of molecules bound per cell).
Principle Components of CAM Controlled CAR T Cell Therapy. The basic components of the CAR-T cell therapy involve FITC as the pseudo tumor antigen, the high affinity EC17 CAM (a CAM is equivalent to a bridge or the “compound” in this application), and a rationally designed anti-FITC CAR and CAR-modified T cells. The EC17 has already been tested in the clinic for immunotherapy and optical imaging purposes. To directly quantify its bispecific binding affinities, ^3H-EC17 was synthesized and radioligand binding assays were carried out on KB and CHO-β cell lines representing FRα+ and FRβ+ target cells, respectively, and on unsorted EGFRt CAR-T cells representing the effector cells.

A further data set deals with HOS-143b. Description: Specific lysis at varying E/T ratios with 10 nM EC17, FR-negative cells. Format: cell-based, human. The settings on record: 10 nM EC17, E2-CAR-T cells, 48 hours of co-culture. How it is done: as §1
Specific lysis (%) was quantified after 16 and 48 hours of co-culture, and Th1 cytokines (IFNg, TNFa) in culture media were measured after 44 hours of co-culture. […] It generally took a longer time (48 hours) and a higher E/T ratio (≥1:1) to see significant activity in the lowest FR-expressing OV90 cells (FIG. 60A). The high FR-expressing KB cells responded very slowly and also required a higher E/T ratio (≥1:3) and longer exposure time to cause significant cell death (FIG. 60B, left plot).

[1] abbreviates: Homo sapiens, EC17, E/T 1:1, curve fitted up to 100 nM, read-out: half-maximal effective concentration (EC50), specific lysis.

Each structure is given as a SMILES string.

In the case of `NC1=NC2N=CC(CNc3ccc(C(=O)N[C@@H](CCC(=O)NCCNC(=S)Nc4ccc(-c5c6ccc(=O)cc-6oc6cc(O)ccc56)c(C(=O)O)c4)C(=O)O)cc3)=NC2C(=O)N1` (some centres unmarked) [EC17, FA-(g)-ethylenediamine-FITC], the body weight loss entry in the data set on MDA-MB-231 tumor (~4.8 million E2-CAR-T cells, after EC17 administration, especially third dose) is recorded as “mild body weight loss”. Further, the tumor response result in the data set with MDA-MB-231 tumor (~4.8 million EGFRt-sorted E2-CAR-T cells, weekly EC17 500 nmol/kg) is “started to respond after the second EC17 dose”. The maximal lysis with THP1-FRβ (E/T 1:1) turned out to be 27%; with KB (E/T 1:1), 11%; with OV90 (E/T 1:1), 15%; in the data set with HOS-FRα (E/T 1:1), 18%; in the data set on MDA-MB-231 (E/T 1:1), 45%. Besides, the EC50 in the data set with THP1-FRβ (setting [1]) turned out to be 0.015 nM; in the data set with KB (Homo sapiens, KB, E/T 1:1, curve fitted up to 100 nM, read-out: half-maximal effective concentration (EC50), specific lysis), 0.0053 nM; with OV90 (Homo sapiens, OV-90, E/T 1:1, curve fitted up to 100 nM, read-out: half-maximal effective concentration (EC50), specific lysis), 0.418 nM; with HOS-FRα (setting [1]), 0.03 nM; in the data set with MDA-MB-231 (Homo sapiens, MDA-MB-231, E/T 1:1, curve fitted up to 100 nM, read-out: half-maximal effective concentration (EC50), specific lysis), 0.0045 nM. The Kd with E2-CAR-T cells was roughly 130 nM. The “specific lysis of FR-negative cells” value in the data set with HOS-143b was “essentially unharmed”.
